Activity calls are given as the source filed them.
Assays:
[1] = Trypanosoma cruzi growth suppression in host cells – NIH3T3 host cells, beta-gal luminescence, confirmation (AID 2044); type: functional, cell-based;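 further: intracellular parasites grown in NIH/3T3 mouse fibroblasts as host cells; luminescent beta-galactosidase reporter signal from transgenic T. cruzi replicating inside host cells; inhibitors lower the luminescence signal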
cells = type: functional, cell-based
[2] = molecular target: Mothers against decapentaplegic homolog 3 (Homo sapiens, UniProt P84022); assay: inhibitors of SMAD-driven TGF-beta signaling – dose response (AID 715); type: functional
[3] = non-specific 3'UTR reporter inhibition in Clone20-Shn3RL – cell-based, Renilla luciferase, cherry-picked, counter-screen for Shn3 inhibitor project, dose response (AID 624133); type: functional
[4] = molecular target: T1, Ubiquitin-conjugating enzyme E2 N (Homo sapiens, UniProt P61088); type: functional;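 further: Dose-response confirmation in a TR-FRET assay detecting UBC13-driven polyubiquitin chain formation, inhibition measured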
T1 sequence (P61088 whole entry): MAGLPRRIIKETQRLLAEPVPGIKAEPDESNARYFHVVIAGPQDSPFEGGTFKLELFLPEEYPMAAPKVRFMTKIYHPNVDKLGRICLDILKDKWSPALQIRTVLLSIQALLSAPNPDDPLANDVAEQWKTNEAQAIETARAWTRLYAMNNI

[5] = molecular target: Cyclin-dependent kinase 2 (Homo sapiens, UniProt P24941); type: functional;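 further: CDK2 measured as one member of a broad kinome profiling panel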
[6] = molecular target: Ribosomal protein S6 kinase alpha-3 (Homo sapiens, UniProt P51812); type: functional;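 further: measured within a kinome-wide profiling panel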
[7] = molecular target: T2, Sentrin-specific protease 7 (Homo sapiens, UniProt Q9BQF6); type: functional;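 further: Luminescence-based dose-response confirmation of ultra-high-throughput screening hits, measuring inhibition of SENP7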
T2 sequence (Q9BQF6 whole entry): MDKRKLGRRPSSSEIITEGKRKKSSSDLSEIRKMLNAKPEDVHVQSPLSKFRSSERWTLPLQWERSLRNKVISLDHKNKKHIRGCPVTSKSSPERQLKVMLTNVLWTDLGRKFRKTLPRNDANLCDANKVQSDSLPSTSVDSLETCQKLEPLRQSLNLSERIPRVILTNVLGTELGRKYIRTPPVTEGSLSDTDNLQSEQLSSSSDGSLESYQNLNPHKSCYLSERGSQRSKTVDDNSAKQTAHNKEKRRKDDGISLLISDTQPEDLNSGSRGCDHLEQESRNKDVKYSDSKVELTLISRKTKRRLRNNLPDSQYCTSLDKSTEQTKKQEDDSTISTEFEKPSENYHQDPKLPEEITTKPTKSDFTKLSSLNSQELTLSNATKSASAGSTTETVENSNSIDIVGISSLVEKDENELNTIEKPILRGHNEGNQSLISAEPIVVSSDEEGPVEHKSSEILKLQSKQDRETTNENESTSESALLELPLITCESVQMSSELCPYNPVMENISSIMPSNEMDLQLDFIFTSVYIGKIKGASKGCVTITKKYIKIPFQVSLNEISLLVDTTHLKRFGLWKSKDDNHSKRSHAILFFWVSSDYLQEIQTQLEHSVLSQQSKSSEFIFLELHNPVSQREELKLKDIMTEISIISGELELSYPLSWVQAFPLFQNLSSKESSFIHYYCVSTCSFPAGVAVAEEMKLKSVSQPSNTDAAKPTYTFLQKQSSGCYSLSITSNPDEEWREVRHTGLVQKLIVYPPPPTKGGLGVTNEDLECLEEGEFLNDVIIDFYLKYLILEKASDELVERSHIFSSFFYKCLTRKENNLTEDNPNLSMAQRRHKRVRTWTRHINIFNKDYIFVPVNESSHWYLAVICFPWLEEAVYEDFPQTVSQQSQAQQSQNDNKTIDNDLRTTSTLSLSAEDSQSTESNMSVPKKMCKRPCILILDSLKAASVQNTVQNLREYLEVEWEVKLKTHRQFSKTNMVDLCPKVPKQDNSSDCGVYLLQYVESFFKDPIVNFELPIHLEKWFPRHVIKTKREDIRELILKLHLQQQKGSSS

[8] = molecular target: T3, Histone-lysine N-methyltransferase NSD2 (Homo sapiens, UniProt O96028); type: biochemical
T3 sequence (O96028 whole entry): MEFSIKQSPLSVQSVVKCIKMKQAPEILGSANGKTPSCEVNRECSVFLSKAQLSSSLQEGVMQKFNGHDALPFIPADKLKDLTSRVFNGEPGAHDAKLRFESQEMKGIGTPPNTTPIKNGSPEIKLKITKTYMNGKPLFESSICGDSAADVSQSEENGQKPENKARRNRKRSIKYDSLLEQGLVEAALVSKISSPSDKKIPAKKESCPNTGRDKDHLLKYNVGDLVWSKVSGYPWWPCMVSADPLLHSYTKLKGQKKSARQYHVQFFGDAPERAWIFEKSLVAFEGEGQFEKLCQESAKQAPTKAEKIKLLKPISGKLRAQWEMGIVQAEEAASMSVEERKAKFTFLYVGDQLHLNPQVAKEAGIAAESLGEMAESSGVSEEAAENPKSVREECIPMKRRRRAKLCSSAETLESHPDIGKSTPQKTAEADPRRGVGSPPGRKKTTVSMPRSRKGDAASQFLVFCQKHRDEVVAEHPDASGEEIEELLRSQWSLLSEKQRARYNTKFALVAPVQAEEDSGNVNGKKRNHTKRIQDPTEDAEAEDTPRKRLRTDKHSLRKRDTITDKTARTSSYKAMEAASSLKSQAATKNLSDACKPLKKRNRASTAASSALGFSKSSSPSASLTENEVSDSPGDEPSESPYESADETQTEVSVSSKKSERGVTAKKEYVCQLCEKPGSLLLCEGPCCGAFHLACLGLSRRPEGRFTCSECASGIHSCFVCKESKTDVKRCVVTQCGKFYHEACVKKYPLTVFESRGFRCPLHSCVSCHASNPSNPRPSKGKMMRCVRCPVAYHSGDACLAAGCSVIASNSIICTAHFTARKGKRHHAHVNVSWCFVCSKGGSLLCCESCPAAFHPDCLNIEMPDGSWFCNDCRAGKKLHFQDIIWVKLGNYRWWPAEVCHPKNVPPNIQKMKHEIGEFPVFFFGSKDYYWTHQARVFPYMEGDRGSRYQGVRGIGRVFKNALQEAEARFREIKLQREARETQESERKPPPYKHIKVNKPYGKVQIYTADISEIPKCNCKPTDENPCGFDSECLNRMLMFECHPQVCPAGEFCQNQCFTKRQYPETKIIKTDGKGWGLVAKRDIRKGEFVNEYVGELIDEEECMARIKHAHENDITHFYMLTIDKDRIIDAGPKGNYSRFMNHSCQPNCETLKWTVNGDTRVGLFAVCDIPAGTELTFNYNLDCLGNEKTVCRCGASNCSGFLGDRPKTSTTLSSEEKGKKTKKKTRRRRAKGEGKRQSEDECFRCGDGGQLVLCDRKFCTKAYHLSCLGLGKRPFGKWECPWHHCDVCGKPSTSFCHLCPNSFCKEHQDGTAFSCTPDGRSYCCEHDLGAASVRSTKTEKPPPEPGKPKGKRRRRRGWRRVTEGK

Ribosomal protein S6 kinase alpha-3, sequence (P51812 whole entry): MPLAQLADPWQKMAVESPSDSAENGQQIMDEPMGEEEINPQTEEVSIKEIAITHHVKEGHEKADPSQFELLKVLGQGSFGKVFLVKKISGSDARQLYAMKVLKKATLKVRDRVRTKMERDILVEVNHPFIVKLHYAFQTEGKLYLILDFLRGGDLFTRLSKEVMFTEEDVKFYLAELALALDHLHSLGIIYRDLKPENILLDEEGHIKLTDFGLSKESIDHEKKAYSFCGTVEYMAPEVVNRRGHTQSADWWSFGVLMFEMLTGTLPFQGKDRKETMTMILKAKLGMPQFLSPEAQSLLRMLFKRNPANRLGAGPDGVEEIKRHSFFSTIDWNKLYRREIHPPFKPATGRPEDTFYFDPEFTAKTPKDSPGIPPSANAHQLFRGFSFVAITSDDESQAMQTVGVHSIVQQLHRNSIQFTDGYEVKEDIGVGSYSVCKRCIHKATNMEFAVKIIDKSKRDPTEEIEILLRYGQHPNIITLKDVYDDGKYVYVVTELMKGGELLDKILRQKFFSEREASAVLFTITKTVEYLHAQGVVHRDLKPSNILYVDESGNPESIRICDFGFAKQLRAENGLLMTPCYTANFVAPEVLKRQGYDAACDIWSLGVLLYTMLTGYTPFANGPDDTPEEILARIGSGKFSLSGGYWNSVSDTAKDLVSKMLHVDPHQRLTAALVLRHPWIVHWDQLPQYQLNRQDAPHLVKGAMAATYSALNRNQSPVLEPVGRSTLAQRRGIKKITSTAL
Mothers against decapentaplegic homolog 3, sequence (P84022 whole entry): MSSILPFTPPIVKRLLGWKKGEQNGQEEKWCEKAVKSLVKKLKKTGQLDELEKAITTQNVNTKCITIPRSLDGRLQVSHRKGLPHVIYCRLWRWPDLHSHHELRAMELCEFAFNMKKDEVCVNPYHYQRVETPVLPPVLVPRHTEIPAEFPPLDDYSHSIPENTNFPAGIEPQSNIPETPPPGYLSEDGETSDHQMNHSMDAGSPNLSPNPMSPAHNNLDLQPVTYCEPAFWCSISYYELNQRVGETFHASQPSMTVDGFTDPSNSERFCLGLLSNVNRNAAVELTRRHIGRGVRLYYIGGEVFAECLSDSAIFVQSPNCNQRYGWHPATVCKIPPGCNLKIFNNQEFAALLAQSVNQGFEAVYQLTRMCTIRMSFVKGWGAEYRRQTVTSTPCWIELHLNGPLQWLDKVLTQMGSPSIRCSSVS

CC(C)CC(=O)NC(c1cccs1)c1ccc2cccnc2c1O (stereo unspecified)
EC50 [1]: 489 nM (active) | EC50 (cells): > 350000 nM (not active)

CCOC(=O)c1ccc(NC2=CC(=O)C(=O)c3ccccc32)cc1
IC50 [2]: 2810 nM (active)

OC(CNCCC1C=Nc2ccccc21)Cn1c2ccc(Cl)cc2c2cc(Cl)ccc21 (stereo unspecified)
AC50 [3]: 6080 nM (active)

CCCCCCCCCCCCCCCC[N+](C)(C)C
IC50 [4]: > 20000 nM (inactive)

NC1CCC(Nc2nc(Cl)cc(-c3c[nH]c4ncccc34)n2)CC1 (stereo unspecified)
Ki [5]: 31.6 nM (active) | pKi [5]: 7.5 | Ki [6]: 12.6 nM (active) | pKi [6]: 7.9

COc1ccc(C(=O)c2nccc3cc(OC)c(OC)cc23)cc1OC
IC50 [7]: 1670 nM (active) | AC50 [8]: 6770 nM (active)

— ChEMBL document CHEMBL1201862, “PubChem BioAssay data set” (2004)
